Like-named read-outs stand apart in the source and are kept apart here.
Assays:
CB1 receptor = target: T1, CB1 receptor (Homo sapiens, UniProt P21554); experiment: [3H]CP-55,940 radioligand competition binding, CB1
T1 construct: host or cells: cell membrane preparations
Procedure: (§1) Briefly, the bioassay is carried out using the Perkin Elmer 96-well Top Counter. […] The procedure is as follows.
(§2) In competition binding experiments, the tested compound dilutions are carried out in duplicate in TME buffer (25 mM Tris, 5 mM MgCl2, 1 mM EDTA) containing 0.1% (w/v) fatty acid free bovine serum albumin (BSA), pH 7.4. […] TME buffer and cell membrane preparations expressing CB receptors (5 μg per well) are added to a final volume of 200 μL. […] After the binding suspensions are incubated at 30° C. for 1 hr, the reaction is terminated by rapid filtration through microfiltration plates (Unifilter GF/B filterplate, PerkinElmer), followed by 5 washes with ice cold TME buffer containing 0.1% BSA on a Packard Filtermate Harvester (PerkinElmer). The plates are then dried overnight and 30 μl MicroScint 0 scintillation cocktail is added to each well of the dried filter plates. The bound radioactivity is then counted using a Perkin Elmer 96-well TopCounter. […] This assay is used for determination of the binding affinity parameters (Ki) of ligand-receptor interactions for the CB receptor.

CB2 receptor = CB2 receptor (Homo sapiens, UniProt P34972); experiment: [3H]CP-55,940 radioligand competition binding, CB2; set-up: host or cells: cell membrane preparations; settings: for SI: selectivity index for CB2: Ki(CB1)/Ki(CB2) ratio
Chain of CB2 receptor (P34972 whole entry): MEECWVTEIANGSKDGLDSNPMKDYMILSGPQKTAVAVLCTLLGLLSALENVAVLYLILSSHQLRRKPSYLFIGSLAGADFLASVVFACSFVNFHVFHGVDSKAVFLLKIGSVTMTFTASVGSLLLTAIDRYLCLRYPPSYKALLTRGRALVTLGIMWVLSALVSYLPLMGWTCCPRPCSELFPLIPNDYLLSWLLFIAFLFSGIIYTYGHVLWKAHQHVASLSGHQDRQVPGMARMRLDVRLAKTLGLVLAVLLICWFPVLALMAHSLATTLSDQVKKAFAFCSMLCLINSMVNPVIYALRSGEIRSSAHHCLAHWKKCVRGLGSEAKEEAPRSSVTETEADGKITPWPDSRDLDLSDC
Procedure: as §1, §2

[1] = [3H]CP-55,940 displacement, read-out: Ki (CB1)
[2] = [3H]CP-55,940 displacement, read-out: Ki (CB2)

T1 sequence (P21554 whole entry): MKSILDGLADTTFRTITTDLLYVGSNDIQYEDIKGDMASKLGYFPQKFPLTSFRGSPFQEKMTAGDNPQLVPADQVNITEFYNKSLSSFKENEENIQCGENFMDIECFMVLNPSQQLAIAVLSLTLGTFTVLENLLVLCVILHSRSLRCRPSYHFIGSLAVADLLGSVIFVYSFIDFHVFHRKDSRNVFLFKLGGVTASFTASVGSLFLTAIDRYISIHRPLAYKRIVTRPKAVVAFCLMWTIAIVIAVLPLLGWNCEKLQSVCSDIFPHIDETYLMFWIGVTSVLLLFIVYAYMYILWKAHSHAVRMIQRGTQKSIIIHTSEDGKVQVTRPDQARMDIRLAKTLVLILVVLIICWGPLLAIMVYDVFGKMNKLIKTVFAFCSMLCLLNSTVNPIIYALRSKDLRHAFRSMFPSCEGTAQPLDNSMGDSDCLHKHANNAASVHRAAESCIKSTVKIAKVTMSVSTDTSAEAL

## Cc1ccc(C(NC(=O)Cc2ccccc2)NC(=O)Cc2ccccc2)cc1 [Compound 8, N,N′-(p-tolylmethylene)bis(2-phenylacetamide)]
CB1 receptor; [1]
  Ki: 109 nM
CB2 receptor; [2]
  Ki: 494 nM

## O=C(Cc1ccccc1)NC(Cc1ccccc1)NC(=O)Cc1ccccc1 [Compound 44, N,N′-(2-Phenylethane-1,1-diyl)bis(2-phenylacetamide)]
CB1 receptor; [1]
  Ki: > 20000 nM

## O=C(Cc1ccccc1)NC(CCc1ccccc1)NC(=O)Cc1ccccc1 [Compound 45, N,N′-(3-Phenylpropane-1,1-diyl)bis(2-phenylacetamide)]
CB1 receptor; [1]
  Ki: > 20000 nM
CB2 receptor; [2]
  Ki: 9320 nM

## O=C(Cc1ccccc1)NC(/C=C/c1ccccc1)NC(=O)Cc1ccccc1 [Compound 46, (E)-N,N′-(3-Phenylprop-2-ene-1,1-diyl)bis(2-phenylacetamide)]
CB1 receptor; [1]
  Ki: > 20000 nM

## CCN(CC)c1ccc(C(NC(=O)C=Cc2ccccc2)NC(=O)C=Cc2ccccc2)cc1 (stereo not drawn) [Compound 48, N,N′-((4-(Diethylamino)phenyl)methylene)bis(3-phenylacrylamide)]
CB1 receptor; [1]
  Ki: > 20000 nM
CB2 receptor
  SI: selectivity index for CB2: >119
CB2 receptor; [2]
  Ki: 167 nM

## CCN(CC)c1ccc(C(NC(=O)C(C)C)NC(=O)C(C)C)cc1 [Compound 50, N,N′-((4-(diethylamino)phenyl)methylene)bis(2-methylpropanamide)]
CB1 receptor; [1]
  Ki: > 20000 nM
CB2 receptor; [2]
  Ki: 2640 nM

## CCN(CC)c1ccc(C(NC(=O)C(C)(C)C)NC(=O)C(C)(C)C)cc1 [Compound 51, N,N′-((4-(diethylamino)phenyl)methylene)bis(2,2-dimethylpropanamide)]
CB1 receptor; [1]
  Ki: > 20000 nM
CB2 receptor; [2]
  Ki: 3550 nM

## CCN(CC)c1ccc(CN(C23CC4CC(CC(C4)C2)C3)S(=O)(=O)c2ccccc2)cc1 [Compound 56, N-((3s,5s,7s)-Adamantan-1-yl)-N-(4-(diethylamino)benzyl)benzenesulfonamide]
CB1 receptor
  Ki: 11000 nM
CB2 receptor
  Ki: 84 nM

## CCN(CC)c1ccc(CN(C23CC4CC(CC(C4)C2)C3)S(=O)(=O)c2ccc(F)cc2)cc1 [Compound 57, N-((3s,5s,7s)-Adamantan-1-yl)-N-(4-(diethylamino)benzyl)-4-fluorobenzenesulfonamide]
CB1 receptor; [1]
  Ki: 4270 nM
CB2 receptor
  Ki: 25 nM

## CCN(CC)c1ccc(CN(C23CC4CC(CC(C4)C2)C3)S(=O)(=O)c2ccc(Cl)cc2)cc1 [Compound 58, N-((3s,5s,7s)-Adamantan-1-yl)-4-chloro-N-(4-(diethylamino)benzyl)benzenesulfonamide]
CB1 receptor; [1]
  Ki: 2030 nM
CB2 receptor
  SI: selectivity index for CB2: 11
CB2 receptor; [2]
  Ki: 173 nM

## CCN(CC)c1ccc(CN(C23CC4CC(CC(C4)C2)C3)S(=O)(=O)c2ccc(C)cc2)cc1 [Compound 60, N-((3s,5s,7s)-Adamantan-1-yl)-N-(4-(diethylamino)benzyl)-4-methylbenzenesulfonamide]
CB1 receptor; [1]
  Ki: > 20000 nM

## CCN(CC)c1ccc(CN(C(=O)C2CCCCC2)C23CC4CC(CC(C4)C2)C3)cc1 [Compound 63, N-((3s,5s,7s)-Adamantan-1-yl)-N-(4-(diethylamino)benzyl)cyclohexanecarboxamide]
CB1 receptor; [1]
  Ki: > 20000 nM
CB2 receptor
  Ki: 35 nM
  SI: selectivity index for CB2: >571

## CCN(CC)c1ccc(CN(C(=O)Cc2ccc(Cl)cc2)C23CC4CC(CC(C4)C2)C3)cc1 [Compound 65, N-((3s,5s,7s)-Adamantan-1-yl)-2-(4-chlorophenyl)-N-(4-(diethylamino)benzyl)acetamide]
CB1 receptor; [1]
  Ki: > 20000 nM

## CCN(CC)c1ccc(CN(C(=O)Cc2ccccc2)C23CC4CC(CC(C4)C2)C3)cc1 [Compound 66, N-((3s,5s,7s)-Adamantan-1-yl)-N-(4-(diethylamino)benzyl)-2-phenylacetamide]
CB1 receptor; [1]
  Ki: > 20000 nM
CB2 receptor
  SI: selectivity index for CB2: >333
CB2 receptor; [2]
  Ki: 60 nM

## CCCCCCCN(Cc1ccc(N(CC)CC)cc1)S(=O)(=O)c1ccc(F)cc1 [Compound 72, N-(4-(Diethylamino)benzyl)-4-fluoro-N-heptylbenzenesulfonamide]
CB2 receptor; [2]
  Ki: 1100 nM

## CCCCCCCN(Cc1ccc(N(CC)CC)cc1)S(=O)(=O)c1ccc(Cl)cc1 [Compound 73, 4-Chloro-N-(4-(diethylamino)benzyl)-N-heptylbenzenesulfonamide]
CB2 receptor; [2]
  Ki: 6740 nM

## CCCCCCCN(Cc1ccc(N(CC)CC)cc1)S(=O)(=O)Cc1ccccc1 [Compound 74, N-(4-(Diethylamino)benzyl)-N-heptyl-1-phenylmethanesulfonamide]
CB2 receptor; [2]
  Ki: 273 nM

## CCCCCCCN(Cc1ccc(N(CC)CC)cc1)S(=O)(=O)CCCC [Compound 75, N-(4-(Diethylamino)benzyl)-N-heptylbutane-1-sulfonamide]
CB2 receptor; [2]
  Ki: 680 nM

## CCCCCCCN(Cc1ccc(N(CC)CC)cc1)C(=O)Cc1ccccc1 [Compound 76, N-(4-(Diethylamino)benzyl)-N-heptyl-2-phenylacetamide]
CB2 receptor; [2]
  Ki: 1310 nM

## CCCCCCCN(Cc1ccc(N(CC)CC)cc1)C(=O)Cc1ccc(Cl)cc1 [Compound 77, 2-(4-Chlorophenyl)-N-(4-(diethylamino)benzyl)-N-heptylacetamide]
CB2 receptor; [2]
  Ki: 696 nM

## CCCCCCCN(Cc1ccc(N(CC)CC)cc1)C(=O)c1ccc(N(C)C)cc1 [Compound 78, N-(4-(Diethylamino)benzyl)-4-(dimethylamino)-N-heptylbenzamide]
CB2 receptor; [2]
  Ki: 1280 nM

## CCCCCCCN(Cc1ccc(N(CC)CC)cc1)C(=O)C1CCCCC1 [Compound 79, N-(4-(Diethylamino)benzyl)-N-heptylcyclohexanecarboxamide]
CB2 receptor; [2]
  Ki: 212 nM

## CCCCCCCC(=O)N(CCCCCCC)Cc1ccc(N(CC)CC)cc1 [Compound 80, N-(4-(Diethylamino)benzyl)-N-heptyloctanamide]
CB2 receptor; [2]
  Ki: > 20000 nM

## CCN(CC)c1ccc(CN(c2ccc(Cl)cc2)S(=O)(=O)c2ccccc2)cc1 [Compound 81, N-(4-Chlorophenyl)-N-(4-(diethylamino)benzyl)benzenesulfonamide]
CB1 receptor; [1]
  Ki: 1770 nM

## CCN(CC)c1ccc(CN(c2ccc(Cl)cc2)S(=O)(=O)c2ccc(F)cc2)cc1 [Compound 82, N-(4-Chlorophenyl)-N-(4-(diethylamino)benzyl)-4-fluorobenzenesulfonamide]
CB1 receptor; [1]
  Ki: 1130 nM
CB2 receptor
  SI: selectivity index for CB2: 15
CB2 receptor; [2]
  Ki: 73 nM

## CCN(CC)c1ccc(CN(c2ccc(Cl)cc2)S(=O)(=O)c2ccc(Cl)cc2)cc1 [Compound 83, 4-Chloro-N-(4-chlorophenyl)-N-(4-(diethylamino)benzyl)benzenesulfonamide]
CB1 receptor; [1]
  Ki: 6620 nM
CB2 receptor
  SI: selectivity index for CB2: 183
CB2 receptor; [2]
  Ki: 36 nM

## CCN(CC)c1ccc(CN(c2ccc(Cl)cc2)S(=O)(=O)c2ccc(C)cc2)cc1 [Compound 85, N-(4-Chlorophenyl)-N-(4-(diethylamino)benzyl)-4-methylbenzenesulfonamide]
CB1 receptor; [1]
  Ki: 137 nM
CB2 receptor
  SI: selectivity index for CB2: 3.7
CB2 receptor; [2]
  Ki: 37 nM

## CCN(CC)c1ccc(CN(c2ccc(Cl)cc2)S(=O)(=O)c2cccc(C)c2)cc1 [Compound 86, N-(4-Chlorophenyl)-N-(4-(diethylamino)benzyl)-3-methylbenzenesulfonamide]
CB1 receptor; [1]
  Ki: 866 nM
CB2 receptor; [2]
  Ki: 2.8 nM

## CCN(CC)c1ccc(CN(c2ccc(Cl)cc2)S(=O)(=O)c2ccc(C(C)C)cc2)cc1 [Compound 87, N-(4-Chlorophenyl)-N-(4-(diethylamino)benzyl)-4-isopropylbenzenesulfonamide]
CB2 receptor; [2]
  Ki: 222 nM

## CCN(CC)c1ccc(CN(C(=O)Cc2ccc(Cl)cc2)c2ccc(Cl)cc2)cc1 [Compound 88, N,2-bis(4-Chlorophenyl)-N-(4-(diethylamino)benzyl)acetamide]
CB1 receptor; [1]
  Ki: > 20000 nM
CB2 receptor
  SI: selectivity index for CB2: 147
CB2 receptor; [2]
  Ki: 136 nM

## CCN(CC)c1ccc(CN(C(=O)C2CCCCC2)c2ccc(Cl)cc2)cc1 [Compound 89, N-(4-Chlorophenyl)-N-(4-(diethylamino)benzyl)cyclohexanecarboxamide]
CB1 receptor; [1]
  Ki: > 20000 nM
CB2 receptor
  SI: selectivity index for CB2: 121
CB2 receptor; [2]
  Ki: 164 nM

## CCN(CC)c1ccc(CN(c2ccc(C)cc2)S(=O)(=O)c2ccccc2)cc1 [Compound 90, N-(4-(Diethylamino)benzyl)-N-(p-tolyl)benzenesulfonamide]
CB1 receptor; [1]
  Ki: 514 nM
CB2 receptor
  SI: selectivity index for CB2: 151
CB2 receptor; [2]
  Ki: 3.4 nM

## CCN(CC)c1ccc(CN(c2ccc(C)cc2)S(=O)(=O)c2ccc(F)cc2)cc1 [Compound 91, N-(4-(Diethylamino)benzyl)-4-fluoro-N-(p-tolyl)benzenesulfonamide]
CB1 receptor; [1]
  Ki: 858 nM
CB2 receptor
  SI: selectivity index for CB2: 153
CB2 receptor; [2]
  Ki: 5.6 nM

## CCN(CC)c1ccc(CN(c2ccc(C)cc2)S(=O)(=O)c2ccc(Cl)cc2)cc1 [Compound 92, 4-Chloro-N-(4-(diethylamino)benzyl)-N-(p-tolyl)benzenesulfonamide]
CB1 receptor; [1]
  Ki: 412 nM
CB2 receptor; [2]
  Ki: 3 nM

## CCN(CC)c1ccc(CN(c2ccc(C)cc2)S(=O)(=O)c2ccc(C)cc2)cc1 [Compound 94, N-(4-(Diethylamino)benzyl)-4-methyl-N-(p-tolyl)benzenesulfonamide]
CB2 receptor; [2]
  Ki: 5.4 nM

## CCN(CC)c1ccc(CN(c2ccc(C)cc2)S(=O)(=O)c2cccc(C)c2)cc1 [Compound 95, N-(4-(Diethylamino)benzyl)-3-methyl-N-(p-tolyl)benzenesulfonamide]
CB1 receptor; [1]
  Ki: 218 nM
CB2 receptor
  SI: selectivity index for CB2: 37
CB2 receptor; [2]
  Ki: 5.8 nM

## CCN(CC)c1ccc(CN(c2ccc(C)cc2)S(=O)(=O)c2ccc(C(C)C)cc2)cc1 [Compound 96, N-(4-(Diethylamino)benzyl)-4-isopropyl-N-(p-tolyl)benzenesulfonamide]
CB1 receptor; [1]
  Ki: 3360 nM
CB2 receptor
  SI: selectivity index for CB2: 782
CB2 receptor; [2]
  Ki: 4.3 nM

## CCN(CC)c1ccc(CN(C(=O)Cc2ccccc2)c2ccc(C)cc2)cc1 [Compound 97, N-(4-(Diethylamino)benzyl)-2-phenyl-N-(p-tolyl)acetamide]
CB1 receptor; [1]
  Ki: > 20000 nM
CB2 receptor
  SI: selectivity index for CB2: >277
CB2 receptor; [2]
  Ki: 72 nM

## CCN(CC)c1ccc(CN(C(=O)Cc2ccc(Cl)cc2)c2ccc(C)cc2)cc1 [Compound 98, 2-(4-Chlorophenyl)-N-(4-(diethylamino)benzyl)-N-(p-tolyl)acetamide]
CB1 receptor; [1]
  Ki: 3200 nM
CB2 receptor
  SI: selectivity index for CB2: 29
CB2 receptor; [2]
  Ki: 107 nM

## CCN(CC)c1ccc(CNc2ccc(Cl)cc2)cc1 [G, 4-(((4-Chlorophenyl)amino)methyl)-N,N′-diethylaniline]
CB2 receptor; [2]
  Ki: 6740 nM

From patent US9376380B2 (University of Pittsburgh—Of the Commonwealth System of …, priority 2011, dated 2016)
